Results published in ChEMBL document CHEMBL1201862, “PubChem BioAssay data set” (2004).
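Values below derive from 48-hour exposures of cells grown in 96-well plates, with endpoints linearly interpolated between the two concentrations bracketing the appropriate inhibition level. Abbreviation: GI50, concentration required for 50% inhibition of growth.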 Active and inactive are the calls of the source. Cut-off read from the data, not from the text of the source: active = GI50 up to about 1.1 µM and inactive = higher.

How the values were obtained:
Assay in all cases: DTP human tumour cell line panel, 48 h
[1] = tested on: PC-3
[2] = tested on: ACHN
[3] = tested on: CAKI-1
[4] = tested on: DU-145
[5] = tested on: SNB-19
[6] = tested on: SNB-75
[7] = tested on: MDA-MB-435
[8] = tested on: SK-OV-3
[9] = tested on: SK-MEL-28
[10] = tested on: UACC-62
[11] = tested on: NCI-H23
[12] = tested on: BT-549
[13] = tested on: MDA-N
[14] = tested on: SF-268
[15] = tested on: NCI/ADR-RES
[16] = tested on: UO-31
[17] = tested on: OVCAR-4
[18] = tested on: OVCAR-8
[19] = tested on: K562
[20] = tested on: TK-10
[21] = tested on: Malme-3M
[22] = tested on: MDA-MB-231
[23] = tested on: SK-MEL-2
[24] = tested on: A498
[25] = tested on: RXF 393
[26] = tested on: SN12C
[27] = tested on: MCF7
[28] = tested on: HOP-62
[29] = tested on: M14
[30] = tested on: HL-60
[31] = tested on: SF-295
[32] = tested on: Hs-578T
[33] = tested on: OVCAR-5
[34] = tested on: HCC 2998
[35] = tested on: SK-MEL-5
[36] = tested on: SW-620
[37] = tested on: NCI-H460
[38] = tested on: SF-539
[39] = tested on: IGROV-1
[40] = tested on: HT-29
[41] = tested on: LOX IMVI
[42] = tested on: A549
[43] = tested on: HCT-15
[44] = tested on: KM12
[45] = tested on: NCI-H226
[46] = tested on: T47D
[47] = tested on: EKVX
[48] = tested on: NCI-H522
[49] = tested on: RPMI-8226
[50] = tested on: OVCAR-3
[51] = tested on: HOP-92
[52] = tested on: COLO 205
[53] = tested on: HCT-116
[54] = tested on: UACC-257
[55] = tested on: CCRF-CEM
[56] = tested on: U-251
[57] = tested on: MOLT-4
[58] = tested on: SR
[59] = tested on: 786-0

O=CC(I)=C(c1ccccc1)c1ccccc1 was tested, and the GI50 [1] was 15.2 µM (inactive), the GI50 [2] was 20.7 µM (inactive) and the GI50 [3] was 16.2 µM (inactive). The GI50 [4] was 15.2 µM (inactive), the GI50 [5] was 15.7 µM (inactive) and the GI50 [6] was 17.1 µM (inactive). For the same compound, the GI50 [7] was 17 µM (inactive), the GI50 [8] was 13.6 µM (inactive) and the GI50 [9] was 17.2 µM (inactive). The GI50 [10] was 16.5 µM (inactive), the GI50 [11] was 19.6 µM (inactive) and the GI50 [12] was 15.1 µM (inactive). The GI50 [13] was 17 µM (inactive), the GI50 [14] was 21.3 µM (inactive) and the GI50 [15] was 20 µM (inactive). For the same compound, the GI50 [16] was 14.3 µM (inactive), the GI50 [17] was 13.4 µM (inactive) and the GI50 [18] was 21.7 µM (inactive). The GI50 [19] was 18.5 µM (inactive), the GI50 [20] was 19.5 µM (inactive) and the GI50 [21] was 16.2 µM (inactive). The GI50 [22] was 14.6 µM (inactive), the GI50 [23] was 16.9 µM (inactive) and the GI50 [24] was 20.7 µM (inactive). For the same compound, the GI50 [25] was 15.1 µM (inactive), the GI50 [26] was 20.7 µM (inactive) and the GI50 [27] was 16.3 µM (inactive). The GI50 [28] was 18.1 µM (inactive), the GI50 [29] was 18.5 µM (inactive) and the GI50 [30] was 6.5 µM (inactive). The GI50 [31] was 17.3 µM (inactive), the GI50 [32] was 24.5 µM (inactive) and the GI50 [33] was 21.8 µM (inactive). For the same compound, the GI50 [34] was 19.7 µM (inactive), the GI50 [35] was 17.3 µM (inactive) and the GI50 [36] was 8.47 µM (inactive). For the same compound, the GI50 [37] was 17.5 µM (inactive), the GI50 [38] was 23.2 µM (inactive) and the GI50 [39] was 19.2 µM (inactive). The GI50 [40] was 14 µM (inactive), the GI50 [41] was 9.51 µM (inactive) and the GI50 [42] was 19.5 µM (inactive). For the same compound, the GI50 [43] was 14.1 µM, the GI50 [44] was 15 µM (inactive) and the GI50 [45] was 23.8 µM (inactive). For the same compound, the GI50 [46] was 13.3 µM (inactive), the GI50 [47] was 18.9 µM (inactive) and the GI50 [48] was 16.2 µM (inactive). The GI50 [49] was 8.51 µM (inactive), the GI50 [50] was 13.2 µM (inactive) and the GI50 [51] was 18.9 µM (inactive). The GI50 [52] was 18.3 µM (inactive), the GI50 [53] was 14.2 µM (inactive) and the GI50 [54] was 20.4 µM (inactive). For the same compound, the GI50 [55] was 15.3 µM (inactive), the GI50 [56] was 15.1 µM (inactive) and the GI50 [57] was 11.3 µM (inactive). The GI50 [58] was 6.92 µM (inactive) and the GI50 [59] was 14.8 µM (inactive).
